Measurements published in patent US9682013B2, “Pharmaceutical compositions comprising human antibodies to PCSK9” (SANOFI BIOTECHNOLOGY, priority 2011, dated 2017).

Assays:
[1] = system: patients with Heterozygous Familial Hypercholesterolemia (HeFH) or other forms of primary hypercholesteremia (nonFH); assay: Study 3: randomized, placebo-controlled, multiple ascending dose trial of 316P in HeFH and nonFH; assay type: in vivo, human; settings: for mean % reduction in LDL-C on day 57: on top of statins, combined FH and nonFH populations
Excerpt: This is a randomized, double-blind, placebo-controlled, multiple ascending dose, multicenter clinical trial in subjects with primary hypercholesterolemia.
The objective of this study was to determine whether a fully human monoclonal antibody to PCSK9 (316P) is effective and safe as either a primary or adjunctive agent to lower LDL-C in patients with Heterozygous Familial Hypercholesterolemia (HeFH) or other forms of primary hypercholesteremia (nonFH). 61 adults with either documented HeFH (n=21) or nonFH (n=30), on diet plus stable atorvastatin therapy (atorvaRx) or nonFH (n=10) on diet alone enrolled in this clinical trial. Subjects on stable atorvastatin therapy had LDL-C≧2.6 mmol/L and those on diet alone had LDL-C≧3.4 mmol/L. 316P at doses of 50, 100 and 150 mg was administered subcutaneously (sc) at 1, 29 and 43 days. The primary endpoint was the incidence and severity of treatment emergent adverse events (TEAE). The primary efficacy endpoint was percent and absolute change in serum LDL-C from baseline to each visit. Additional endpoints included apolipoprotein (apo) B, total cholesterol, HDL-C, VLDL-C, and the ratio of apoB to apoA1. 109 patients were screened, and 61 patients were randomized (14 placebo, 47 316P) with 100% completing 148+/−7 days of treatment and follow up. Compared to the nonFH cohort, the FH group was younger (mean 40 vs. 52 yrs), had more males (81% vs. 57%) and was on higher doses of atorvastatin (52% on 40 mg vs. 3%). Baseline LDL-C was 3.45, 2.88 and 4.46 mmol/L in the FH, nonFH atorvaRx and nonFH diet only groups, respectively.

[2] = system: patients with heterozygous familial hypercholesterolemia (heFH); assay: Study 6: randomized, placebo-controlled 12-week trial in heFH on statin with or without ezetimibe (interim analysis); assay type: in vivo, human; settings: every two or four weeks
Method: A randomized, double-blind, multi-dose, placebo controlled, 75-patient trial in patients with heterozygous familial hypercholesterolemia (heFH). In this trial, patients must meet the World Health Organization criteria for heFH, be on a stable daly statin regimen for at least 6-weeks before entering the trial, and have serum LDL-C levels ≧100 mg/dL. Patients were permitted to be taking ezetimibe in addition to a daily statin. The primary endpoint of the study is the change in LDL cholesterol from baseline compared to placebo over the 12-week study period.
Patients treated with different doses of 316P achieved mean LDL-C reductions of approximately 30% to greater than 60% from baseline at 12-weeks compared to a 10% reduction with placebo (p<0.01), which was the primary endpoint of the study. The interim analysis was conducted when all patients completed the primary endpoint at 12-weeks.

hPCSK9 = hPCSK9 (Homo sapiens, UniProt Q8NBP7); settings: unmutated hPCSK9; cited from earlier work
hPCSK9 D238 mutated = hPCSK9 D238 mutated (Homo sapiens, UniProt Q8NBP7, D238R); settings: cited from earlier work
Sequence of hPCSK9 D238 mutated (Q8NBP7 153-692 D238R): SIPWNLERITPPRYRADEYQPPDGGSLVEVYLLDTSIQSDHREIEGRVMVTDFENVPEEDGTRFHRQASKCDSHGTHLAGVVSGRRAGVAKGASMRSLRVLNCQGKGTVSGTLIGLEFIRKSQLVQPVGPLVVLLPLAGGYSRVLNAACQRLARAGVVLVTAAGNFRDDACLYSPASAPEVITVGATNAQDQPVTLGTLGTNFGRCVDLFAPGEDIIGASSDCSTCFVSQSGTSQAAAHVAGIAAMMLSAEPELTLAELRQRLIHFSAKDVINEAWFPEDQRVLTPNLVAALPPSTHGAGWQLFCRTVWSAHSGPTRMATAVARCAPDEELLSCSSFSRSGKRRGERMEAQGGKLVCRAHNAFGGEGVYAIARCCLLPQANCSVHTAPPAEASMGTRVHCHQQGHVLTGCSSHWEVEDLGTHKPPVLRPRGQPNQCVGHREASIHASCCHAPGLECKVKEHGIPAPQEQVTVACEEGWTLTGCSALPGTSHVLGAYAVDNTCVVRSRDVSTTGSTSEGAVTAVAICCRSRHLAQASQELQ

Sequence of hPCSK9 (Q8NBP7 153-692): as the sequence (Q8NBP7 153-692 D238R) above, with R86D counted along it

316P: fully human anti-PCSK9 antibody comprising a HCVR as shown in SEQ ID NO: 90 and LCVR as shown in SEQ ID NO: 92 [Antibody 316P]
mean % reduction in LDL-C on day 57 ([1]; 50 mg sc at days 1, 29 and 43): 35.6%
mean % reduction in LDL-C on day 57 ([1]; 100 mg sc at days 1, 29 and 43): 50.2%
mean % reduction in LDL-C on day 57 ([1]; 150 mg sc at days 1, 29 and 43): 57.5%
HDL-C ([1]; 50, 100 and 150 mg sc): Favourable changes
apoA1 ([1]; 50, 100 and 150 mg sc): Favourable changes
liver function testing or other laboratory parameters ([1]; 50, 100 and 150 mg sc): No drug-related adverse effects
serious adverse events ([1]; 50, 100 and 150 mg sc): No serious adverse events
tolerability ([1]; 50, 100 and 150 mg sc): generally well-tolerated
response between FH and nonFH or those on or not on statin therapy ([1]; no statistical analysis performed): did not appear to be differences in response
mean LDL-C reductions at 12-weeks compared to placebo [2]: significantly greater mean LDL-C reductions
Kd (hPCSK9): ~0.001 µM
T1/2 decrease (hPCSK9 D238 mutated; D238 mutated vs unmutated): > 30 fold
reduction in binding affinity (hPCSK9 D238 mutated; D238 mutated vs unmutated): > 400 fold
Kd (hPCSK9 D238 mutated; D238 mutated): ~0.41 µM
